The text below walks through data of patent publication US20240342136A1, “Glutamate receptor agonists for suppression of mast cell function” (University of Pittsburgh - Of the Commonwealth System of …, priority 2023, published 2024).

Entries after “also recorded” stand apart in the source; their conditions may differ.

The test system of test [1] is contact hypersensitivity. The test is described as follows: DNFB contact hypersensitivity, ear thickness. Format: in vivo, mice. As to conditions: topical SYM2081 on shaved abdomen twice daily for 2 days; 0.5% DNFB sensitization, 0.25% DNFB challenge; 7 days; FIG. 3B.
Test [2] deals with murine peritoneal mast cells. In words: Mast cell degranulation by flow cytometry (surface Lamp1 and avidin binding) after compound 48/80. Format: cell-based. Particulars: for degranulation of PCMC in response to MrgprB2: in vitro, dose-dependent manner; for mast cell degranulation (mast cell activation): 48 hours incubation, compound 48/80 20 ug/ml 20 minutes, FIG. 1B. Here is the method: Primary mast cell cultures derived from murine peritoneal mast cells were incubated for 48 hours with kainic acid (0.1, 1.0, 10 and 100 uM), glutamate (6 mM) or vehicle control. Cultures were then exposed to the synthetic MrgprB2 ligand, compound 48/80, at 20 ug/ml for 20 minutes. The extent of mast cell degranulation was determined based on surface expression of Lamp1 protein and avidin binding using flow cytometry gated on CD117+ FcεR+ mast cells. Representative flow plots from unstimulated cells (control) and cells stimulated with compound 48/80 are shown (FIG. 1A). […] A similar set of experiments were performed using mast cells incubated with the selective GluK2 agonist, SYM2081 at 1600 nM concentration (FIGS. 1C and 1D). […] Each symbol represents data from a single well of mast cells.

In test [3] the test system is mast cells in whole human skin explants. In words: Whole human skin explants, degranulated mast cells by toluidine blue after compound 48/80. Format: cell-based. As to conditions: 1600 nM for 48 hours; compound 48/80 240 ug/ml 20 minutes; FIG. 2C. As for the experimental part: (§1) Cohorts of 7-9-week-old female C57BL/6 mice were given 20 ul intradermal flank injections of 1600 nM SYM2081 or control PBS twice a day for 2 days. Evans Blue dye was introduced by intravenous injection to allow for quantification of edema followed by intradermal injection of control PBS or compound 48/80 (20 ul 10 ug/ml). The amount of Evans blue dye released into the skin which quantifies edema and is an indirect measure of mast cell degranulation was measured 20 minutes later (FIG. 2A). […] The percentage of degranulated mast cells was also quantified by direct microscopic visualization of skin samples stained with toluidine blue (FIG. 2B). Whole human skin explants were cultured in control PBS or 1600 nM SYM2081 for 48 hours. Sample were exposed to compound 48/80 (240 ug/ml) for 20 minutes followed by direct microscopic visualization of skin samples stained with toluidine blue (FIG. 2C). […] Finally, C57BL/6 mice were treated with intradermal injection of control PBS or SYM2081 for 2 days as above. Mice were then challenged by application of 0.5% croton oil, an irritant, on 1 ear and the degree of ear swelling which is reflective of the extent of irritant dermatitis was measured (FIG. 2D). […] Each symbol represents data from an individual animal.

Test [4] concerns irritant dermatitis. In words: Croton oil-induced irritant dermatitis, ear swelling. Format: in vivo, C57BL/6 mice. As to conditions: intradermal SYM2081 for 2 days; 0.5% croton oil on 1 ear; FIG. 2D. Here is the method: as §1
Test [5] deals with murine peritoneal mast cells. In words: β-hexosaminidase release from mast cells. Format: cell-based. Particulars: preincubated with SYM2081 at 100 nM and 1600 nM; FIG. 1F.
In test [6] the test system is dermal mast cells. The test is described as follows: Evans Blue dye edema after intradermal compound 48/80 in mice. Particulars: compound 48/80 challenge, 20 minutes. Format: in vivo, C57BL/6 mice. Here is the method:
Cohorts of 7-9-week-old female C57BL/6 mice were given 20 ul intradermal flank injections of 1600 nM SYM2081 or control PBS twice a day for 2 days. Evans Blue dye was introduced by intravenous injection to allow for quantification of edema followed by intradermal injection of control PBS or compound 48/80 (20 ul 10 ug/ml). The amount of Evans blue dye released into the skin which quantifies edema and is an indirect measure of mast cell degranulation was measured 20 minutes later (FIG. 2A). […] The percentage of degranulated mast cells was also quantified by direct microscopic visualization of skin samples stained with toluidine blue (FIG. 2B). […] Mice were then challenged by application of 0.5% croton oil, an irritant, on 1 ear and the degree of ear swelling which is reflective of the extent of irritant dermatitis was measured (FIG. 2D). […]
Cohorts of 7-9-week-old female C57BL/6 mice were treated with 5.0% SYM2081 formulated into a light base or vehicle alone on the flank twice daily for 2 days. Evans Blue dye was introduced by intravenous injection to allow for quantification of edema followed by intradermal injection of control PBS or compound 48/80 (20 ul 10 ug/ml). The amount of Evans blue dye released into the skin which quantifies edema and is an indirect measure of mast cell degranulation was measured 20 minutes later (FIG. 3A). […]

As to `C[C@H](C[C@H](N)C(=O)O)C(=O)O` [SYM2081, (2S,4R)-4-methylglutamic acid], the “increased ear thickness (inflammation) in response to DNFB” value in test [1] was “reduced inflammation”. For the same molecule, the “effective concentration (suppression of mast cells)” value in test [2] (FIG. 1E) is on record as “at least 0.1 nM”. The IC50 (usually the midpoint of a concentration-inhibition curve) in test [2] (Mus musculus, Mast cell, read-out: IC50 of suppression of mast cells (degranulation)) was 2.27 nM. Further, the “degranulation of PCMC in response to MrgprB2” value (“degranulation of PCMC” for short) in test [2] is “suppressed”. In addition, the “percentage of degranulated mast cells” value in test [3] was “reduced percentage of degranulated mast cells”. The “ear swelling (irritant dermatitis)” value in test [4] is “attenuated; also recorded: reduced ear swelling”. The “release of β-hexosaminidase” value in test [5] is “decreased”. The “edema (Evans blue dye released into the skin), indirect measure of mast cell degranulation” value in test [6] (20 ul intradermal 1600 nM SYM2081 twice a day for 2 days, FIG. 2A) is given as “effective to reduce mast cell degranulation; also recorded: suppressed; also recorded: significant reduction in edema”; in test [6] (topical 5.0% SYM2081 in a light base on flank twice daily for 2 days, FIG. 3A), “effective to reduce mast cell degranulation; also recorded: significant reduction in edema”.

Regarding `N[C@@H](CCC(=O)O)C(=O)O` [glutamate], the “mast cell degranulation (mast cell activation)” value in test [2] (glutamate 6 mM) is recorded as “suppress mast cell activation”. For the same molecule, the “degranulation of PCMC” value in test [2] was “suppressed”.

`C=C(C)[C@H]1CN[C@H](C(=O)O)[C@H]1CC(=O)O` [kainic acid]: in test [2], the “degranulation of PCMC” value is reported as “suppressed”. The “mast cell degranulation (mast cell activation)” value in test [2] (kainic acid 0.1, 1.0, 10 and 100 uM) is recorded as “suppress mast cell activation”.
